# Assay results: ChEMBL document CHEMBL4334471, “Discovery of 1,8-disubstituted-[1,2,3]triazolo[4,5-c]quinoline derivatives as a new class of Hippo signaling pathway inhibitors” (Bioorg Med Chem Lett, 2019)
# Tests used:
# [1] = test system: PI3-kinase p110-alpha/p85-alpha (Homo sapiens), P27986+P42336 [H1047R]; test: Inhibition of recombinant full-length human PI3K p110/p85 H1047R mutant assessed as residual activity at 10 uM using phosphatidylinositol-4, 5-bisphosphate as substrate incubated for 40 mins in presence of [gamma33P]ATP by scintillation counting based radiometry assay relative to control
# [2] = test system: Serine/threonine-protein kinase Sgk1 (Homo sapiens), O00141 [S422D]; test: Inhibition of recombinant human SGK S422D mutant (60 to end residues) assessed as residual activity at 10 uM using GRPRTSSFAEGKK as substrate incubated for 40 mins in presence of [gamma33P]ATP by scintillation counting based radiometry assay relative to control
# Serine/threonine-protein kinase Sgk1 (Homo sapiens), O00141 [S422D], sequence (O00141 whole entry S422D): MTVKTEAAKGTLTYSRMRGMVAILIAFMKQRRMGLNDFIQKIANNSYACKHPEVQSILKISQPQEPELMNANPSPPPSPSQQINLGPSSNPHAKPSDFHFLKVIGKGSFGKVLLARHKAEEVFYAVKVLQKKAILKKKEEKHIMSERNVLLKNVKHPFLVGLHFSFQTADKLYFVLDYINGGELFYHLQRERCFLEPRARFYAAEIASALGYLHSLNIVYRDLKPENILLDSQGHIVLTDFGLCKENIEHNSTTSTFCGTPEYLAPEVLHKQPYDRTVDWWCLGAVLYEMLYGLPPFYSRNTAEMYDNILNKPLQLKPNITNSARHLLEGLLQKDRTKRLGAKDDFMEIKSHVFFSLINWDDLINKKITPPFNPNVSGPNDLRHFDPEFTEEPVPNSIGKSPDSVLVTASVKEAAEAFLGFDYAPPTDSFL
# [3] = molecular target: CDK3/Cyclin E (Homo sapiens) (UniProt P24864+Q00526); test: Inhibition of recombinant full length human CDK3/CyclinE assessed as residual activity at 10 uM using Histone H1 as substrate incubated for 40 mins in presence of [gamma-33ATP] by scintillation counting based radiometry assay relative to control; type: protein-complex assay
# [4] = molecular target: Mitogen-activated protein kinase 14 (Homo sapiens) (UniProt Q16539); test: Inhibition of recombinant human full length SAPK2a assessed as residual activity at 10 uM using myelin basic protein as substrate incubated for 40 mins in presence of [gamma33P]ATP by scintillation counting based radiometry assay relative to control
# Mitogen-activated protein kinase 14 (Homo sapiens), sequence (Q16539 whole entry, the tested form may be a part): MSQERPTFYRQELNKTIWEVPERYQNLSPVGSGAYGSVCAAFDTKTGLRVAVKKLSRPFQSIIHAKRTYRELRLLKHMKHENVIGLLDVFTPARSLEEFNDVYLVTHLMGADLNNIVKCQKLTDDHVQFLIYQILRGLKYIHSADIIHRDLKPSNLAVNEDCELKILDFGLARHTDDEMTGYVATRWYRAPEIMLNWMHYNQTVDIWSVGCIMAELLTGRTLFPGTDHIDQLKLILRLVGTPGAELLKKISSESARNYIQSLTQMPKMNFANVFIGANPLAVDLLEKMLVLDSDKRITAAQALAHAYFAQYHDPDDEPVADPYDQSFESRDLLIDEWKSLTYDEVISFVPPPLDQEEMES
# [5] = molecular target: Mitogen-activated protein kinase kinase kinase kinase 2 (Homo sapiens) (UniProt Q12851); test: Inhibition of recombinant human GCK (1 to 473 residues) assessed as residual activity at 10 uM using myelin basic protein as substrate at 40 mins in presence of [gamma-33ATP] by scintillation counting based radiometry assay relative to control
# Mitogen-activated protein kinase kinase kinase kinase 2 (Homo sapiens), sequence (Q12851 whole entry, the tested form may be a part): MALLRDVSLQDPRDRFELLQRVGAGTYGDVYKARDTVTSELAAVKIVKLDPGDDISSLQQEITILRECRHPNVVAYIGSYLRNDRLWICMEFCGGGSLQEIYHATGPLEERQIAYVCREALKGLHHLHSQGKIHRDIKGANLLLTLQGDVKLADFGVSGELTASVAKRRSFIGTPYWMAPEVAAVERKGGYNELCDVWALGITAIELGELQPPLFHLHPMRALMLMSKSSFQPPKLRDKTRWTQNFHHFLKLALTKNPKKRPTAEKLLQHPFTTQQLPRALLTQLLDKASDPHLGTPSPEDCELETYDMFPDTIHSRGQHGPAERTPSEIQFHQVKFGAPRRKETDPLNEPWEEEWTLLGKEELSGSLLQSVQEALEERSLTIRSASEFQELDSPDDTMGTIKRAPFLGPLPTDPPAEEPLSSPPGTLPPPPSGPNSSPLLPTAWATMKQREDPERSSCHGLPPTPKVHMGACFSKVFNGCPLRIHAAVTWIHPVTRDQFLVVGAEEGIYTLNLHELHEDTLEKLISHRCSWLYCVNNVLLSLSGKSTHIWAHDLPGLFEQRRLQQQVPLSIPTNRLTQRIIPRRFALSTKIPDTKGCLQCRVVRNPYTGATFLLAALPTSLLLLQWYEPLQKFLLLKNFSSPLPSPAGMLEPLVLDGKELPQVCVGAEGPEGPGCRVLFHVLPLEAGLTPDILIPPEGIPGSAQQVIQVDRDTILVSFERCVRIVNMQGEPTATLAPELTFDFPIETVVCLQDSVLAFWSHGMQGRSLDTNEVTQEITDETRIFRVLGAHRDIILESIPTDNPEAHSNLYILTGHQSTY
# [6] = molecular target: Calcium/calmodulin-dependent protein kinase type 1B (Homo sapiens) (UniProt Q6P2M8); test: Inhibition of recombinant full length human CaMKIbeta assessed as residual activity at 10 uM using KKLRRTLSFAEP as substrate incubated for 40 mins in presence of [gamma-33ATP] by scintillation counting based radiometry assay relative to control
# [7] = molecular target: Epidermal growth factor receptor (Homo sapiens) (UniProt P00533); test: Inhibition of recombinant human EGFR (696 to end residues) assessed as residual activity at 10 uM using poly(Glu, Tyr) 4:1 as substrate at 40 mins in presence of [gamma-33ATP] by scintillation counting based radiometry assay relative to control
# [8] = molecular target: Tyrosine-protein kinase Fgr (Homo sapiens) (UniProt P09769); test: Inhibition of recombinant human FGR (2 to end residues) assessed as residual activity at 10 uM using poly(Glu, Tyr) 4:1 as substrate at 40 mins in presence of [gamma-33ATP] by scintillation counting based radiometry assay relative to control
# Mus musculus = species on record: Mus musculus; test: Inhibition of recombinant full-length mouse PI3K p110/p85 E542K mutant assessed as residual activity at 10 uM using phosphatidylinositol-4, 5-bisphosphate as substrate incubated for 40 mins in presence of [gamma33P]ATP by scintillation counting based radiometry assay relative to control
# [9] = molecular target: SRSF protein kinase 3 (Homo sapiens) (UniProt Q9UPE1); test: Inhibition of recombinant full-length human MSSK1 assessed as residual activity at 10 uM using ERMRPRKRQGSVRRRV as substrate measured after 40 mins in presence of [gamma33P]ATP by scintillation counting based radiometry assay relative to control
# SRSF protein kinase 3 (Homo sapiens), sequence (Q9UPE1 whole entry): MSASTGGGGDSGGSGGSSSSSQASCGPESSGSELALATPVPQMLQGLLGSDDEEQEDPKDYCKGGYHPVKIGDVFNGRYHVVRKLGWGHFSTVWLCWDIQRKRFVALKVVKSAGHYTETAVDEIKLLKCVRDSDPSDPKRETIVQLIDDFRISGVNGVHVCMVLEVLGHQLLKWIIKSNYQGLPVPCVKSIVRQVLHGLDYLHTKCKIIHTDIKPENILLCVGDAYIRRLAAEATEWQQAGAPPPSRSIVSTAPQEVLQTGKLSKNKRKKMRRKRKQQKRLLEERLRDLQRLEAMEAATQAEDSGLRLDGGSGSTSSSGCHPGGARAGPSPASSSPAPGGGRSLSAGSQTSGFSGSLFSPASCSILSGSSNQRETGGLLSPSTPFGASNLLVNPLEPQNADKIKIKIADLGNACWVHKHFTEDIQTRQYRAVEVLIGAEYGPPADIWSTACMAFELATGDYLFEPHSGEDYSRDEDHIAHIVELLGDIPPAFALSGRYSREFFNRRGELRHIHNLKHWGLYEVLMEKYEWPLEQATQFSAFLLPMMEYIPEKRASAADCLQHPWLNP
# [10] = molecular target: cGMP-dependent protein kinase 1 (Homo sapiens) (UniProt Q13976); test: Inhibition of recombinant full-length human PKG1beta assessed as residual activity at 10 uM using RRRLSFAEPG as substrate incubated for 40 mins in presence of [gamma33P]ATP by scintillation counting based radiometry assay relative to control
# [11] = molecular target: Mitogen-activated protein kinase 11 (Homo sapiens) (UniProt Q15759); test: Inhibition of recombinant human full length SAPK2b assessed as residual activity at 10 uM using myelin basic protein as substrate incubated for 40 mins in presence of [gamma33P]ATP by scintillation counting based radiometry assay relative to control
# Mitogen-activated protein kinase 11 (Homo sapiens), sequence (Q15759 whole entry): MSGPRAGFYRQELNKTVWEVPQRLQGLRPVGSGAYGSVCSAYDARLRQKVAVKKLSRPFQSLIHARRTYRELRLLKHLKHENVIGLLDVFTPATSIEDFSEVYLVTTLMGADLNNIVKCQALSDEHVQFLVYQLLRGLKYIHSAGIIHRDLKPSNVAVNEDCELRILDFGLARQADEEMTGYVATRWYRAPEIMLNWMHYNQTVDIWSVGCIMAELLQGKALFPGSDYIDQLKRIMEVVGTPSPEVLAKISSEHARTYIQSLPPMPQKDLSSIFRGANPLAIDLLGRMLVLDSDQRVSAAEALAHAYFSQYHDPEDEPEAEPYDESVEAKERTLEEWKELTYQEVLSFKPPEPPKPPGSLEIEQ
# [12] = test system: Epidermal growth factor receptor (Homo sapiens), P00533 [L858R]; test: Inhibition of recombinant human EGFR L858R mutant (696 to end residues) assessed as residual activity at 10 uM using poly(Glu, Tyr) 4:1 as substrate at 40 mins in presence of [gamma-33ATP] by scintillation counting based radiometry assay relative to control
# [13] = test system: Receptor-type tyrosine-protein kinase FLT3 (Homo sapiens), P36888 [D835Y]; test: Inhibition of recombinant human FLT3 D835Y mutant (564 to end residues) assessed as residual activity at 10 uM using EAIYAAPFAKKK as substrate at 40 mins in presence of [gamma-33ATP] by scintillation counting based radiometry assay relative to control
# [14] = test system: Mitogen-activated protein kinase 14 (Homo sapiens), Q16539 [T106M]; test: Inhibition of recombinant human full length SAPK2a T106M mutant assessed as residual activity at 10 uM using myelin basic protein as substrate incubated for 40 mins in presence of [gamma33P]ATP by scintillation counting based radiometry assay relative to control
# Mitogen-activated protein kinase 14 (Homo sapiens), Q16539 [T106M], sequence (Q16539 whole entry T106M, the tested form may be a part): as the sequence (Q16539 whole entry, the tested form may be a part) above, with T106M counted along it
# [15] = test system: Discoidin domain-containing receptor 2 (Homo sapiens), Q16832 [UNDEFINED MUTATION]; test: Inhibition of recombinant human DDR2 S642A mutant (467 to end residues) assessed as residual activity at 10 uM using KKSRGDYMTMQIG as substrate at 40 mins in presence of [gamma-33ATP] by scintillation counting based radiometry assay relative to control
# [16] = molecular target: Macrophage-stimulating protein receptor (Homo sapiens) (UniProt Q04912); test: Inhibition of recombinant human Ron (983 to end residues) assessed as residual activity at 10 uM using GGMEDIYFEFMGGKKK as substrate incubated for 40 mins in presence of [gamma33P]ATP by scintillation counting based radiometry assay relative to control
# Macrophage-stimulating protein receptor (Homo sapiens), sequence (Q04912 25-304 limits assumed): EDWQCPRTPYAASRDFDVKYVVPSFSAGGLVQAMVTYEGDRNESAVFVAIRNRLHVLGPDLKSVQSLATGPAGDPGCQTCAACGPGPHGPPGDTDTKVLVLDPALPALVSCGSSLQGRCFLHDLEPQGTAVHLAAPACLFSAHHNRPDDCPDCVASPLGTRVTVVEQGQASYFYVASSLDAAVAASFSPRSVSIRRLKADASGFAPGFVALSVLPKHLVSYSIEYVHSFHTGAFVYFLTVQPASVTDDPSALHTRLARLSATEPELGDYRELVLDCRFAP
# Macrophage-stimulating protein receptor (Homo sapiens), sequence (Q04912 310-1400 limits assumed): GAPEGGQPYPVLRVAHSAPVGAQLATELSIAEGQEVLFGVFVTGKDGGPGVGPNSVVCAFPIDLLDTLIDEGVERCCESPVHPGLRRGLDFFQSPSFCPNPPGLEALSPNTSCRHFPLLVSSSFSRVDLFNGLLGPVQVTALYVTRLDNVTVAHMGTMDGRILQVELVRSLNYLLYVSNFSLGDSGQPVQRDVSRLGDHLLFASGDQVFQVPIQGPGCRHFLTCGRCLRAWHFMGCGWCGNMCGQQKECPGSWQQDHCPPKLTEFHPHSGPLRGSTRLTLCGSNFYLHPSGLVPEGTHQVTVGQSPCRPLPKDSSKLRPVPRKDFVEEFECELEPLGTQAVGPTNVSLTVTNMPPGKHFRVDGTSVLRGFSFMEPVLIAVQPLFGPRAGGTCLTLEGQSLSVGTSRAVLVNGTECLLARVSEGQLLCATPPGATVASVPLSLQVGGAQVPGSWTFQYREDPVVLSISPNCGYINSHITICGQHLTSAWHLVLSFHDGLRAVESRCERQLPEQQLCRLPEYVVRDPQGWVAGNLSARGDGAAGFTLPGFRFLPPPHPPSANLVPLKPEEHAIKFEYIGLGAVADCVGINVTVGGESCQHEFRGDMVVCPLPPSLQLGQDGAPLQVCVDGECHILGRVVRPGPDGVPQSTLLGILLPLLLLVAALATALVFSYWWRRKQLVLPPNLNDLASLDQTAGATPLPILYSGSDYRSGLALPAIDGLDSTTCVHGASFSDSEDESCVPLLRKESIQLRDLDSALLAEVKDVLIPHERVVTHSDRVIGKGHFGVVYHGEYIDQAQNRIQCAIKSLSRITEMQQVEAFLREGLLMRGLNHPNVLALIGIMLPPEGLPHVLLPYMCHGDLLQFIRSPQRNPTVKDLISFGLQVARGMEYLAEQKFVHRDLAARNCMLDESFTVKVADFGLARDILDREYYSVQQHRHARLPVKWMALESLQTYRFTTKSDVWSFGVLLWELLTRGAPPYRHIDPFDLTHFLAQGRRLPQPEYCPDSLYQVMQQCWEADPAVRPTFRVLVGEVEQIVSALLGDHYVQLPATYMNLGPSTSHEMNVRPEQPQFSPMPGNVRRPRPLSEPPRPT
# Homo sapiens = species on record: Homo sapiens; test: Inhibition of recombinant human A-Raf Y301D/ Y302D mutant (273 to end residues) assessed as residual activity at 10 uM using myelin basic protein as substrate incubated for 40 mins in presence of [gamma-33ATP] by scintillation counting based radiometry assay relative to control
# [17] = molecular target: Ribosomal protein S6 kinase alpha-1 (Homo sapiens) (UniProt Q15418); test: Inhibition of recombinant full length human Rsk1 assessed as residual activity at 10 uM using KKKNRTLSVA as substrate incubated for 40 mins in presence of [gamma33P]ATP by scintillation counting based radiometry assay relative to control
# Ribosomal protein S6 kinase alpha-1 (Homo sapiens), sequence (Q15418 whole entry, the tested form may be a part): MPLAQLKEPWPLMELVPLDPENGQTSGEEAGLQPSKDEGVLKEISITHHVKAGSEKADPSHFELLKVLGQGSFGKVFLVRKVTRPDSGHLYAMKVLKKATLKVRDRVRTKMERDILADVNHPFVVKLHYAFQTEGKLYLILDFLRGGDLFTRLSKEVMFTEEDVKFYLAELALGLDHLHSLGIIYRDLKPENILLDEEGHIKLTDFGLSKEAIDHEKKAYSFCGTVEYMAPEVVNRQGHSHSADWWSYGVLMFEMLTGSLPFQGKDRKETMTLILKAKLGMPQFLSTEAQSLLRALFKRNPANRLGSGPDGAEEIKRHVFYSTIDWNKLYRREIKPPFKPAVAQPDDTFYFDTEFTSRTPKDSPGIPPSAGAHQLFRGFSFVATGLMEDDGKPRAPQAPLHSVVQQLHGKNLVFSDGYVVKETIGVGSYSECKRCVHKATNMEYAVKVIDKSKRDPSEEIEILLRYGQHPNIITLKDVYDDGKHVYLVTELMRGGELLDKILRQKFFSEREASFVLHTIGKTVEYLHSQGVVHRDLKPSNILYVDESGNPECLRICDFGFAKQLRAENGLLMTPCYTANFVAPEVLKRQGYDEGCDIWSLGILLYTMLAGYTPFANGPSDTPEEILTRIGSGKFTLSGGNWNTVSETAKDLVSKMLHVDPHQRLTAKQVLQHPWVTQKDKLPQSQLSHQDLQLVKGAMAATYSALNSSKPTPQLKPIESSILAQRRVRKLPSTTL
# [18] = molecular target: Serine/threonine-protein kinase WNK2 (Homo sapiens) (UniProt Q9Y3S1); test: Inhibition of recombinant human WNK2 (166 to 489 residues) assessed as residual activity at 10 uM using myelin basic protein as substrate incubated for 40 mins in presence of [gamma33P]ATP by scintillation counting based radiometry assay relative to control
smiles,measurement,setting,value
C[C@@H](c1ccccc1)n1nnc2cnc3ccc(-c4cnc5[nH]ccc5c4)cc3c21,Activity,[1],16%
same,Activity,[2],52%
same,Activity,[3],71%
same,Activity,[4],105%
same,Activity,[5],75%
same,Activity,[6],67%
same,Activity,[7],90%
same,Activity,[8],5%
same,Activity,Mus musculus,-1%
same,Activity,[9],69%
same,Activity,[10],66%
same,Activity,[11],93%
same,Activity,[12],40%
same,Activity,[13],42%
same,Activity,[14],97%
same,Activity,[15],35%
same,Activity,[16],79%
same,Activity,Homo sapiens,95%
same,Activity,[17],46%
same,Activity,[18],85%
